In data set [1] the target is T1, Mitogen-activated protein kinase kinase kinase 8 (Homo sapiens, UniProt P41279). Nature of the data set: Inhibitory activity against human Tpl2 kinase via quantification of MEK phosphorylation. The class given is functional.
Target sequence in this assay (P41279 whole entry): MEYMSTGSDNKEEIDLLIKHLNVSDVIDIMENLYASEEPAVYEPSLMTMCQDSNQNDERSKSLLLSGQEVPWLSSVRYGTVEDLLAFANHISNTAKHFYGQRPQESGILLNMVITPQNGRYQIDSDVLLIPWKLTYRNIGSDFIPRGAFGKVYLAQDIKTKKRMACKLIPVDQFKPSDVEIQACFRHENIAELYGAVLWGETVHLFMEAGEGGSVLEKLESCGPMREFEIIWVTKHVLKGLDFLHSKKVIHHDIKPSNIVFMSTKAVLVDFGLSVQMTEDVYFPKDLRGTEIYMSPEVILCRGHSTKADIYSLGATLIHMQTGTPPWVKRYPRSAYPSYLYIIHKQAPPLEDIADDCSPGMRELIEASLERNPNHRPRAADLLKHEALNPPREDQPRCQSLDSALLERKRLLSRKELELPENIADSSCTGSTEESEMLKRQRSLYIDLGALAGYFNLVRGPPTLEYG
Data set [2] has as its target T1, Mitogen-activated protein kinase kinase kinase 8. Nature of the data set: Inhibition of LPS-induced TNFalpha production in human whole blood.
Target sequence in this assay (P41279 whole entry, looked up): as the sequence (P41279 whole entry) above
For data set [3] the target is unchanged. Nature of the data set: Inhibition of LPS-induced TNFalpha production in primary human monocytes.
Target sequence in this assay (P41279 whole entry, looked up): as the sequence (P41279 whole entry) above
The target in data set [4] is MAP kinase p38 (Homo sapiens, UniProt O15264+Q15759+Q16539+P53778). Nature of the data set: Inhibitory activity against p38. It counts as protein assay.
Data set [5] concerns the target Protein kinase C (PKC). Nature of the data set: Inhibitory activity against PKC. The class given is protein assay.
A short description of data set [6]: Plasma binding to human serum albumin. The class given is ADME. Particulars: read-out: PPB (converted).
Data set [7] addresses Dual specificity mitogen-activated protein kinase kinase 1 (Homo sapiens, UniProt Q02750). Nature of the data set: Inhibitory activity against MEK.
Data set [8] is described as follows: Solubility determined. It counts as physicochemical.
For data set [9], the target named is MAP kinase-activated protein kinase 2 (Homo sapiens, UniProt P49137). Nature of the data set: Inhibitory activity against MK2.
MAP kinase-activated protein kinase 2, sequence (P49137 whole entry): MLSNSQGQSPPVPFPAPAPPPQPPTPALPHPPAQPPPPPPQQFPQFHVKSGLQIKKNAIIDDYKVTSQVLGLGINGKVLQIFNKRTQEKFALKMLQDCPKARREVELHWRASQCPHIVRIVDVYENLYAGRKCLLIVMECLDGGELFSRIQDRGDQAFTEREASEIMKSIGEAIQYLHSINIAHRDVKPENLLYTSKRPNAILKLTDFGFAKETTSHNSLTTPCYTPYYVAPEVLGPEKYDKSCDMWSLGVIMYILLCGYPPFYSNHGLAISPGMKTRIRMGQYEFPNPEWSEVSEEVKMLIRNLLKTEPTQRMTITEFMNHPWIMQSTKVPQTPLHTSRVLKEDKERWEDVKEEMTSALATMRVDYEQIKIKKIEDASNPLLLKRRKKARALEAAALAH
The target in data set [10] is Proto-oncogene tyrosine-protein kinase Src (Homo sapiens, UniProt P12931). Nature of the data set: Inhibitory activity against Src.
Proto-oncogene tyrosine-protein kinase Src, sequence (P12931 2-536 limits assumed): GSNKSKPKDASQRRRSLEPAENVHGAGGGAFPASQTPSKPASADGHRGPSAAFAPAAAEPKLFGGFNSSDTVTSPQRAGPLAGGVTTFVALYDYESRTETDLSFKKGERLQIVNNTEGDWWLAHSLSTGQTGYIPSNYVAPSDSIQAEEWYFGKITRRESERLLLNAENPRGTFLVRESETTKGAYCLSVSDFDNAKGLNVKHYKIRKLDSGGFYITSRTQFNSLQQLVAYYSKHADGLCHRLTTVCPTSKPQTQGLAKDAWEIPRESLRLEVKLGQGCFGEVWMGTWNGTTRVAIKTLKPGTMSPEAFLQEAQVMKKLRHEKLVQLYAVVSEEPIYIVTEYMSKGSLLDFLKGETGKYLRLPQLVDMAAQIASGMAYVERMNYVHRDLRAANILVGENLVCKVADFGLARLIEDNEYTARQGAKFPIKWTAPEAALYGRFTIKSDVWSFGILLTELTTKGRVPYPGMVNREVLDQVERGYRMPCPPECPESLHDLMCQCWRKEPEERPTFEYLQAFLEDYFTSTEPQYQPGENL

Values after ≈ are worked out from the molar mass of the structure shown.

A word on the IC50: it is the midpoint of a concentration-inhibition curve. Read a high IC50 as weaker potency. As a reminder, the solubility is the concentration that dissolves in the medium under given conditions.

Dual specificity mitogen-activated protein kinase kinase 1, sequence (Q02750 whole entry): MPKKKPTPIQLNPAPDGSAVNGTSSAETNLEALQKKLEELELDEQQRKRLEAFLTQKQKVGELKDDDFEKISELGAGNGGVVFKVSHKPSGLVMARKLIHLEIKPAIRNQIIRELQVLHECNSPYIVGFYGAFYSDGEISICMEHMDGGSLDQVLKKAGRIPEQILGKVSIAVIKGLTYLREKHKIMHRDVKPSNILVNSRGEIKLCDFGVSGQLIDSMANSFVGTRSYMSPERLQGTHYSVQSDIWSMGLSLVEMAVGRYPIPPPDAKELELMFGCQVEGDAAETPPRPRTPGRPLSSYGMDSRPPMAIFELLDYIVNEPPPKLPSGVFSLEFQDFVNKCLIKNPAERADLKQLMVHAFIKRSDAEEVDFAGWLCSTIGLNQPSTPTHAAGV

For the compound `N#Cc1cnc2cnc(NCCN3CCOCC3)cc2c1Nc1ccc(S(=O)(=O)c2ccccc2)cc1`, the IC50 in data set [1] was above 40 µM.
As for `N#Cc1cnc2cnc(NCCN3CCOCC3)cc2c1Nc1ccc(Cc2ccccc2)cc1`, the half-maximal inhibitory concentration (IC50) in [1] was 0.002 µM; in data set [2] it was 13.6 µM; in [3], 0.8 µM; in [4], above 400 µM; in data set [5], above 400 µM; in [7], 0.63 µM. For the same compound, the results for the IC50 in data set [9] and in data set [10] were above 400 µM and 4 µM, respectively. In addition, in data set [6], the fraction unbound is 0.01. For the same compound, the solubility entry in data set [8] is “Insoluble”.
Compound `N#Cc1cnc2cnc(NCCCN3CCOCC3)cc2c1Nc1ccc(F)c(Cl)c1` returned an IC50 in [1] of 3.4 µM.
In the case of `N#Cc1cnc2cnc(NCc3cccnc3)cc2c1Nc1ccc(F)c(Cl)c1`, the IC50 is above 400 µM in data set [5], above 40 µM in data set [7], 110 µM in data set [9] and above 400 µM in data set [10]. Further, the fraction unbound in data set [6] is 0.02. In addition, the solubility in [8] (read-out: Solubility) came to 2 µg/mL (≈ 4.94 µM).
For `N#Cc1cnc2cnc(NCCN3CCOCC3)cc2c1Nc1ccc(Oc2ccccc2)cc1`, the IC50 in [1] was 0.38 µM; in data set [5], 200 µM; in data set [7] it was 0.8 µM; in [9], above 400 µM; in [10] it was 90 µM. In addition, the fraction unbound in [6] is below 0.01. Moreover, the solubility in data set [8] (read-out: Solubility) came to 1 µg/mL (≈ 2.14 µM).
As to `N#Cc1cnc2cnc(NCCN3CCOCC3)cc2c1Nc1ccc(F)c(Cl)c1`, the 50% inhibitory concentration (IC50) is 30 µM in data set [5], 15 µM in data set [7], above 400 µM in data set [9] and 40 µM in data set [10]. In data set [6], the fraction unbound is 0.15. Moreover, the solubility in [8] (read-out: Solubility) worked out at 64 µg/mL (≈ 150 µM).
In turn, `Cc1c(Br)cccc1Nc1c(C#N)cnc2cnc(NCCN3CCOCC3)cc12` returned a half-maximal inhibitory concentration (IC50) in data set [1] above 40 µM.
As for `N#Cc1cnc2cnc(NCCN3CCOCC3)cc2c1Nc1ccc(Sc2ccccc2)cc1`, the IC50 is above 400 µM in data set [5], 0.96 µM in data set [7], above 400 µM in [9] and 3 µM in data set [10]. In [6], the fraction unbound is below 0.01. Besides, the solubility in [8] (read-out: Solubility) stood at 1 µg/mL (≈ 2.07 µM).
The compound `N#Cc1cnc2cnc(NCCN3CCOCC3)cc2c1Nc1ccc(Cl)cc1F` gave a 50% inhibitory concentration (IC50) in data set [1] of 10 µM.
Same read-out and setting: in the case of `C[C@H](Nc1cc2c(Nc3ccc(F)c(Cl)c3)c(C#N)cnc2cn1)c1ccccc1` it was 27 µM; in that of `N#Cc1cnc2cnc(NC(CN3CCOCC3)c3ccccc3)cc2c1Nc1ccc(F)c(Cl)c1` (stereo unspecified), 1.8 µM.
In turn, `N#Cc1cnc2cnc(NCCN3CCOCC3)cc2c1Nc1ccc(Cl)c(Cl)c1` yielded an IC50 in data set [1] of 10 µM.
`N#Cc1cnc2cnc(NCCCN3CCCC3)cc2c1Nc1ccc(F)c(Cl)c1` had a concentration for half-maximal inhibition (IC50) in [1] of 3.57 µM.
On the same count and under the same terms, the same measure for `N#Cc1cnc2cnc(NCc3ccccc3)cc2c1Nc1ccc(F)c(Cl)c1`: 0.073 µM; for `N#Cc1cnc2cnc(NCCN3CCOCC3)cc2c1Nc1ccc(C(F)(F)F)cc1`: above 40 µM; for `CN(Cc1ccccc1)c1cc2c(Nc3ccc(F)c(Cl)c3)c(C#N)cnc2cn1`: above 40 µM.
The compound `N#Cc1cnc2cnc(NC3CCCC3)cc2c1Nc1ccc(F)c(Cl)c1` came in with a concentration for half-maximal inhibition (IC50) in data set [1] above 40 µM.
Turning to `N#Cc1cnc2cnc(NCCN3CCOCC3)cc2c1Nc1ccc(Cl)cc1`, the IC50 in data set [1] is above 40 µM.
On the same count and under the same terms, in the case of `CN1CCN(CCCNc2cc3c(Nc4ccc(F)c(Cl)c4)c(C#N)cnc3cn2)CC1` it was 21 µM; in that of `CC[C@H](Nc1cc2c(Nc3ccc(F)c(Cl)c3)c(C#N)cnc2cn1)c1ccccc1`, above 40 µM.
On the same count and under the same terms, the same measure for `N#Cc1cnc2cnc(NCCN3CCOCC3)cc2c1NCc1ccc(F)c(Cl)c1`: above 40 µM.
